{"source": "ChEMBL document CHEMBL4251688", "about": "“Allosteric Modulators of Nicotinic Acetylcholine Receptors Useful for the Treatment of Cognitive Impairment” (ACS Med Chem Lett, 2018)"}
{"target": "Neuronal acetylcholine receptor subunit alpha-7 (Homo sapiens, UniProt P36544)", "sequence (P36544 whole entry)": "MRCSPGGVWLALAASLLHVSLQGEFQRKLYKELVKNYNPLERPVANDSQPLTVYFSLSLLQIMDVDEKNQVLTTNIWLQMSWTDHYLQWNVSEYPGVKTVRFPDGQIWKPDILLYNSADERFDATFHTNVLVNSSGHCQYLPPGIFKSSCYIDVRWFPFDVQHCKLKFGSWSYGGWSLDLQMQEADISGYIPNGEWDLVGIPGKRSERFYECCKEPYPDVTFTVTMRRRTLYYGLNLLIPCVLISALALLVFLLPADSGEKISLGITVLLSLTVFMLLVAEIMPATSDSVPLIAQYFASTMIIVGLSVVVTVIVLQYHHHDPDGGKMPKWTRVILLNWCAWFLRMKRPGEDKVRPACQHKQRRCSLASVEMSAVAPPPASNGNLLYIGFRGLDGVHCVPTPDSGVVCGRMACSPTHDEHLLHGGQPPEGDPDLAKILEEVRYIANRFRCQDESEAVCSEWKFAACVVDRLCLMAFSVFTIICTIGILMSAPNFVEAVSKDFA", "experiment": "Positive allosteric modulation of human alpha 7 nAChR expressed in HEK cells co-expressing human RIC3 assessed as increase in acetylcholine-induced channel current at holding potential of -60 mV incubated for 58 secs followed by acetylcholine treatment for 1 sec by patch clamp electrophysiology assay", "format": "cell-based", "units": {"EC50": "nM"}}
{"smiles": "CC1(C)[C@@H](c2ccc(S(N)(=O)=O)cc2)[C@@H]1c1noc(-c2ccc(F)cc2)n1", "EC50": 93}
{"smiles": "CC1(C)[C@@H](c2ccc(S(N)(=O)=O)cc2)[C@@H]1c1noc(C2CC(F)(F)C2)n1", "EC50": 98}
{"smiles": "NS(=O)(=O)c1ccc([C@H]2[C@H](c3noc(-c4ccccc4)n3)C2(F)F)cc1", "EC50": 83}
{"smiles": "CC1(C)[C@@H](c2ccc(S(N)(=O)=O)cc2)[C@@H]1c1noc(C2CCCC2)n1", "EC50": 69}
{"smiles": "CC(Oc1cccc(Cl)c1)c1nc([C@H]2[C@H](c3ccc(S(N)(=O)=O)cc3)C2(C)C)no1", "note": "(stereo not given in full)", "EC50": 93}
